# Source: US4478841A, “3-[2-(Tetra- and Hexa- hydro-4-pyridyl)-ethyl]-indoles and their use as medicaments” (Pharmuka Laboratoires, priority 1981, dated 1984)
# Read-outs that look alike come from different tables or passages of the source.
# Experiments:
# [1] = test system: serotonin release, human blood platelets; experiment: Serotonin release from human blood platelets; assay type: cell-based; conditions: Platelet, product concentration 5 × 10^-5 moles per liter, relative to controls, read-out: Percent of increased serotonin release
# Method: "Platelets Function and Thrombosis, a Review of Methods" p.
# The action of the products on serotonin release is tested at a concentration of 5×10^-5 moles per liter.
# [2] = test system: serotonin uptake, human blood platelets; experiment: Inhibition of serotonin uptake by human blood platelets; assay type: cell-based; conditions: Platelet, read-out: Inhibition of serotonin uptake I50
# From the text: It is known that serotonin uptake by the blood platelets is a good model of the uptake of this amine by the neurons (cf. J. Tuomisto, J. Pharm., Pharmac., 26, 92 (1974). When applied to the study of medicaments, a method involving the use of blood platelets is of great interest because it allows the use of human cells so that its anticipation character is good.
# The capacity of products to inhibit serotonin uptake or to induce serotonin release, was shown on human blood platelets, according to J. L. David and Coll. "Platelets Function and Thrombosis, a Review of Methods" p. 335 (Plenum Press, London, 1972).
# 1. Inhibition of Serotonin uptake
# The results are expressed by a 50% inhibiting dose or I50 which represents the product dose, in micromoles per liter, which reduces the rate of serotonin uptake by 50%.
# [3] = Acute oral toxicity in male CD1 mice; conditions: mouse, in vivo, 3 days of observation
# Method: The acute toxicity of the products has been established in the male CD1 (Charles RIVER) mice following oral administration. The LD50 calculated following 3 days of observation by the cumulative method of J. J. Reed and Coll. (Am. J. Hyg. 27, 493-1938) is 600 mg/kg for compounds of Examples 1 and 2 and about 400 mg/kg for the compound of Example 4.
Structure (SMILES),activation at 50 µM [1] [%],IC50 ([2]; Homo sapiens) [nM],"IC50 ([2]; human blood platelets, dose reducing the rate of serotonin uptake by 50%) [nM]",LD50 at 72 h [3] [mg/kg]
"CC(N)Cc1ccc(Cl)cc1 (stereo not drawn) [p-chloro-amphetamine, p-chloroamphetamine, reference compound]",51,12000,–,–
"c1ccc2c(CCC3CCNCC3)c[nH]c2c1 [Indalpine, 3-[2-(4-piperidyl)-ethyl]-indole, reference compound]",22,–,35,–
"CN(C)CCCN1c2ccccc2CCc2ccccc21 [Imipramine, imipramine, reference compound]",13,400,–,–
"C1=C(CCc2c[nH]c3ccccc23)CCNC1 [Example 1, 3-[2-(1,2,5,6-tetrahydro-4-pyridyl)-ethyl]-indole]",85,55,–,600
"CC(Cc1c[nH]c2ccccc12)C1=CCNCC1 (stereo not drawn) [Example 2, 3-[2-(1,2,5,6-tetrahydro-4-pyridyl)-2-methyl-ethyl]-indole]",68,40,–,600
"CC(Cc1c[nH]c2ccccc12)C1CCNCC1 (stereo not drawn) [Example 4, 3-[2-(4-piperidyl)-2-methyl-ethyl]-indole]",76,10,–,~400
